Measurements from patent US5530126A, “Process for the preparation of substituted 6-(pyrazol-3yl)-1,4-benzoxazin-3-ones” (Monsanto Company, priority 1994, dated 1996).
Where “and” joins values, the source holds several entries; their conditions need not be identical. Identical values can stand only once.

How the values were obtained:
Type in all cases: in vivo
Velvetleaf [1] = test: Post-emergence herbicide test; conditions: for inhibition at 11210 g/ha: Abutilon theophrasti, 11.21 kg/ha, read-out: % plant inhibition (Vele)
From the text: (§1) Topsoil is placed in aluminum pans having holes in the bottom and compacted to a depth of 0.95 to 1.27 cm from the top of the pan. A predetermined number of seeds of each of several dicotyledonous and monocotyledonous annual plant species and/or vegetative propagules for the perennial plant species are placed on the soil and pressed into the soil surface. The seeds and/or vegetative propagules are covered with soil and leveled. The pans are then placed on a bench in the greenhouse and watered from below as needed. After the plants reach the desired age (two to three weeks), each pan, is removed individually to a spraying chamber and sprayed by means of an atomizer, operating at a spray pressure of 170.3 kPa (10 psig) at the application rates noted. In the spray solution is an amount of an emulsifying agent mixture to give a spray solution or suspension which contains about 0.4% by volume of the emulsifier. The spray solution or suspension contains a sufficient amount of the candidate chemical in order to give application rates of the active ingredient corresponding to those shown in Tables 8 and 8A, while applying a total amount of solution or suspension equivalent to 1870 L/Ha (200 gallons/acre). The pans were returned to the greenhouse and watered as before and the injury to the plants as compared to the control is observed at approximately 10-14 days (usually 11 days) and in some instances observed again at 24-28 days (usually 25 days) after spraying. The post-emergent herbicidal activity shown in these tables is the percent inhibition of each plant species.

Annual bluegrass [2] = test: Post-emergence herbicide test; conditions: 11.21 kg/ha, read-out: % plant inhibition (Anbg)
From the text: as §1

Downy Brome [3] = test: Post-emergence herbicide test; conditions: Bromus tectorum, 11.21 kg/ha, read-out: % plant inhibition (Dobr)
From the text: as §1

Seedling johnsongrass [4] = test: Post-emergence herbicide test; conditions: Sorghum halepense, 11.21 kg/ha, read-out: % plant inhibition (Sejg)
From the text: as §1

Indian Mustard [5] = test: Post-emergence herbicide test; conditions: Brassica juncea, 11.21 kg/ha, read-out: % plant inhibition (Inmu)
From the text: as §1

Cocklebur [6] = test: Post-emergence herbicide test; conditions: for inhibition at 11210 g/ha: Xanthium strumarium, 11.21 kg/ha, read-out: % plant inhibition (Cobu)
From the text: as §1

Yellow nutsedge [7] = test: Post-emergence herbicide test; conditions: Cyperus, read-out: % plant inhibition (Yens); for inhibition at 11210 g/ha: 11.21 kg/ha
From the text: as §1

Morningglory [8] = test: Post-emergence herbicide test; conditions: for inhibition at 11210 g/ha: 11.21 kg/ha
From the text: as §1

Barnyardgrass [9] = test: Post-emergence herbicide test; conditions: Echinochloa crus-galli, 11.21 kg/ha, read-out: % plant inhibition (Bygr)
From the text: as §1

Wild buckwheat [10] = test: Post-emergence herbicide test; conditions: Fallopia convolvulus, 11.21 kg/ha, read-out: % plant inhibition (Wibw)
From the text: as §1

Velvetleaf [11] = test: Pre-emergence herbicide test; conditions: Abutilon theophrasti, read-out: % plant inhibition (Vele); for inhibition at 11210 g/ha: 11.21 kg/ha
Description: (§2) The tests for pre-emergence herbicide activity are conducted as follows:
(§3) Topsoil is placed in an aluminum pan and compacted to a depth of 0.95 to 1.27 cm from the top of the pan. On the top of the soil is placed a predetermined number of seeds of each of several monocotyledonous and dicotyledonous annual plant species and/or vegetative propagules of various perennial plant species. A known amount of the active ingredient dissolved or suspended in an organic solvent, e.g., acetone, or water as carrier is then applied directly to the seed bed, which is then covered with a layer of untreated topsoil to level fill the pan. After treatment, the pans are moved to a greenhouse bench where they are watered from below as needed to give adequate moisture for germination and growth.
(§4) Approximately 10-14 days (usually 11 days) after seeding and treating, the pans are observed and the results (% inhibition) are recorded.
(§5) Tables 7 and 7A below summarize the results of the pre-emergence herbicidal activity tests of compounds of this invention in weeds. The herbicidal rating shown in these tables is the percent inhibition of each plant species. The plant species usually regarded as weeds which are utilized in one set of tests, the data for which are shown in the tables, are identified by letter headings above the columns in accordance with the following legend: […]

Annual bluegrass [12] = test: Pre-emergence herbicide test; conditions: read-out: % plant inhibition (Anbg); for inhibition at 11210 g/ha: 11.21 kg/ha
Description: as §2, §3, §4, §5

Downy Brome [13] = test: Pre-emergence herbicide test; conditions: Bromus tectorum, read-out: % plant inhibition (Dobr); for inhibition at 11210 g/ha: 11.21 kg/ha
Description: as §2, §3, §4, §5

Seedling johnsongrass [14] = test: Pre-emergence herbicide test; conditions: Sorghum halepense, read-out: % plant inhibition (Sejg); for inhibition at 11210 g/ha: 11.21 kg/ha
Description: as §2, §3, §4, §5

Indian Mustard [15] = test: Pre-emergence herbicide test; conditions: Brassica juncea, read-out: % plant inhibition (Inmu); for inhibition at 11210 g/ha: 11.21 kg/ha
Description: as §2, §3, §4, §5

Cocklebur [16] = test: Pre-emergence herbicide test; conditions: Xanthium strumarium, read-out: % plant inhibition (Cobu); for inhibition at 11210 g/ha: 11.21 kg/ha
Description: as §2, §3, §4, §5

Yellow nutsedge [17] = test: Pre-emergence herbicide test; conditions: Cyperus, read-out: % plant inhibition (Yens); for inhibition at 11210 g/ha: 11.21 kg/ha
Description: as §2, §3, §4, §5

Morningglory [18] = test: Pre-emergence herbicide test; conditions: Ipomoea, read-out: % plant inhibition (Mogl); for inhibition at 11210 g/ha: 11.21 kg/ha
Description: as §2, §3, §4, §5

Barnyardgrass [19] = test: Pre-emergence herbicide test; conditions: Echinochloa crus-galli, read-out: % plant inhibition (Bygr); for inhibition at 11210 g/ha: 11.21 kg/ha
Description: as §2, §3, §4, §5

Wild buckwheat [20] = test: Pre-emergence herbicide test; conditions: Fallopia convolvulus, read-out: % plant inhibition (Wibw); for inhibition at 11210 g/ha: 11.21 kg/ha
Description: as §2, §3, §4, §5

[21] = Ipomoea, read-out: % plant inhibition (Mogl)

Row | SMILES | inhibition at 11210 g/ha (Velvetleaf [1]) [%] | inhibition at 11210 g/ha (Annual bluegrass [2]) [%] | inhibition at 11210 g/ha (Downy Brome [3]) [%] | inhibition at 11210 g/ha (Seedling johnsongrass [4]) [%] | inhibition at 11210 g/ha (Indian Mustard [5]) [%] | inhibition at 11210 g/ha (Cocklebur [6]) [%] | inhibition at 11210 g/ha (Yellow nutsedge [7]) [%] | inhibition at 11210 g/ha (Morningglory [8]; [21]) [%] | inhibition at 11210 g/ha (Barnyardgrass [9]) [%] | inhibition at 11210 g/ha (Wild buckwheat [10]) [%] | inhibition at 11210 g/ha (Velvetleaf [11]) [%] | inhibition at 11210 g/ha (Annual bluegrass [12]) [%] | inhibition at 11210 g/ha (Downy Brome [13]) [%] | inhibition at 11210 g/ha (Seedling johnsongrass [14]) [%] | inhibition at 11210 g/ha (Indian Mustard [15]) [%] | inhibition at 11210 g/ha (Cocklebur [16]) [%] | inhibition at 11210 g/ha (Yellow nutsedge [17]) [%] | inhibition at 11210 g/ha (Morningglory [18]) [%] | inhibition at 11210 g/ha (Barnyardgrass [19]) [%] | inhibition at 11210 g/ha (Wild buckwheat [20]) [%] | other results
1 | Cn1nc(C(F)F)c(Cl)c1-c1cc(F)ccc1F [Compound 62] | 10 | 0 | 0 | 0 | 0 | 0 | 0 | 0 | 0 | 0 | 60 | 0 | 0 | 30 | 20 | 0 | 0 | 30 | 20 | 20 | –
2 | Cc1cc(-c2c(Cl)c(C(F)(F)F)nn2C)c(F)cc1Cl [Compound 63] | 100 | 20 | 20 | 70 | 40 | 0 | 0 | 100 | 20 | 100 | 100 | 100 | 100 | 100 | 100 | 60 | 0 | 100 | 100 | 100 | –
3 | Cn1nc(C(F)(F)F)c(Cl)c1-c1ccc([N+](=O)[O-])cc1 [Compound 65] | 70 | 0 | 10 | 50 | 30 | 40 | 0 | 50 | 70 | 70 | 90 | 70 | 0 | 70 | – | 0 | 0 | 20 | 30 | 80 | –
4 | Cn1nc(C(F)(F)F)c(Br)c1-c1cc(F)ccc1F [Compound 68] | 0 | 0 | 0 | 0 | 0 | 0 | 0 | 0 | 0 | 0 | 40 | 0 | 0 | 10 | 0 | 0 | 30 | 30 | 10 | – | –
5 | Cn1nc(C(F)(F)F)c(Cl)c1-c1cc(F)c([N+](=O)[O-])cc1F [Compound 70] | 50 | 10 | 10 | 10 | 20 | 30 | 0 | 40 | 40 | – | 90 | 40 | 20 | 80 | 80 | 20 | 0 | 80 | 40 | 80 | –
6 | Cn1nc(C(F)(F)F)c(Cl)c1-c1cc(F)c(Cl)cc1Cl [Compound 80] | 60 | 0 | 0 | 0 | 0 | 10 | 0 | 10 | 0 | – | 100 | 90 | 70 | 80 | 80 | 60 | 0 | 60 | 70 | 90 | –
7 | Cn1nc(-c2cc(F)c(Cl)cc2Cl)c(Cl)c1C(F)(F)F [Compound 84] | 100 | 10 | 0 | 40 | 0 | 20 | 10 | 50 | 10 | – | 100 | 100 | 100 | 100 | 100 | 80 | 30 | 90 | 100 | 100 | –
8 | Cn1nc(-c2cc(OCC(=O)OC(C)(C)C)c(Cl)cc2F)c(Cl)c1C(F)(F)F [Compound 294, (2-Chloro-5-(4-chloro-1-methyl-5-(trifluoromethyl)-1H-pyrazol-3-yl)-4-fluorophenoxy)acetic acid, 1,1-dimethylethyl ester] | – | – | – | – | – | – | – | – | – | – | – | – | – | – | – | – | – | – | – | – | % plant inhibition (Vele) (Velvetleaf [1]; 1.12 kg/ha): 50% and 80%; % plant inhibition (Cobu) (Cocklebur [6]; 1.12 kg/ha): 50%; inhibition at 1120 g/ha (Yellow nutsedge [7]; 1.12 kg/ha): 0%; % plant inhibition (Mogl) (Morningglory [8]; 1.12 kg/ha): 90%; inhibition at 1120 g/ha (Morningglory [8]; Ipomoea, 1.12 kg/ha, read-out: % plant inhibition (Mogl)): 80%; inhibition at 1120 g/ha (Velvetleaf [11]; 1.12 kg/ha): 70%; inhibition at 1120 g/ha (Annual bluegrass [12]; 1.12 kg/ha): 0%; inhibition at 1120 g/ha (Downy Brome [13]; 1.12 kg/ha): 20%; inhibition at 1120 g/ha (Seedling johnsongrass [14]; 1.12 kg/ha): 20%; inhibition at 1120 g/ha (Indian Mustard [15]; 1.12 kg/ha): 0%; inhibition at 1120 g/ha (Cocklebur [16]; 1.12 kg/ha): 80%; inhibition at 1120 g/ha (Yellow nutsedge [17]; 1.12 kg/ha): 0%; inhibition at 1120 g/ha (Morningglory [18]; 1.12 kg/ha): 70%; inhibition at 1120 g/ha (Barnyardgrass [19]; 1.12 kg/ha): 20%; inhibition at 1120 g/ha (Wild buckwheat [20]; 1.12 kg/ha): 90%
9 | Cn1nc(-c2cc(NC(=O)C3(Br)CC3)c(Cl)cc2F)c(Cl)c1C(F)(F)F [Compound 500, cyclopropanecarboxamide,-1-bromo-N-[2-chloro-5-[4-chloro-1-methyl-5-(trifluoromethyl)-1H-pyrazol-3-yl]-4-fluorophenyl]-] | – | 50 | – | 90 | – | – | 0 | – | – | – | 70 | 10 | 80 | 70 | 30 | 40 | 0 | 60 | 30 | 90 | –
